Assay results from paper PMC6934184, “Selective DNA-PKcs inhibition extends the therapeutic index of localized radiotherapy and chemotherapy” (The Journal of Clinical Investigation, 2019).

Molecular target: T1, PIK3CB/PIK3R1 (p110β/p85α) (Homo sapiens, UniProt P42338)
T1 construct: purchased Thermo Fisher Scientific (Life Technologies) SelectScreen
Assay: SelectScreen Adapta
Format: biochemical
In short: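 NU5455 was profiled across the SelectScreen Broad panel of kinase activity and binding assays. Z'LYTE reactions such as CSF1R ran at apparent Km ATP, while the Adapta CAMK1 assay used ATP listed as 10. Values are given as percent.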

T1 sequence (P42338 whole entry): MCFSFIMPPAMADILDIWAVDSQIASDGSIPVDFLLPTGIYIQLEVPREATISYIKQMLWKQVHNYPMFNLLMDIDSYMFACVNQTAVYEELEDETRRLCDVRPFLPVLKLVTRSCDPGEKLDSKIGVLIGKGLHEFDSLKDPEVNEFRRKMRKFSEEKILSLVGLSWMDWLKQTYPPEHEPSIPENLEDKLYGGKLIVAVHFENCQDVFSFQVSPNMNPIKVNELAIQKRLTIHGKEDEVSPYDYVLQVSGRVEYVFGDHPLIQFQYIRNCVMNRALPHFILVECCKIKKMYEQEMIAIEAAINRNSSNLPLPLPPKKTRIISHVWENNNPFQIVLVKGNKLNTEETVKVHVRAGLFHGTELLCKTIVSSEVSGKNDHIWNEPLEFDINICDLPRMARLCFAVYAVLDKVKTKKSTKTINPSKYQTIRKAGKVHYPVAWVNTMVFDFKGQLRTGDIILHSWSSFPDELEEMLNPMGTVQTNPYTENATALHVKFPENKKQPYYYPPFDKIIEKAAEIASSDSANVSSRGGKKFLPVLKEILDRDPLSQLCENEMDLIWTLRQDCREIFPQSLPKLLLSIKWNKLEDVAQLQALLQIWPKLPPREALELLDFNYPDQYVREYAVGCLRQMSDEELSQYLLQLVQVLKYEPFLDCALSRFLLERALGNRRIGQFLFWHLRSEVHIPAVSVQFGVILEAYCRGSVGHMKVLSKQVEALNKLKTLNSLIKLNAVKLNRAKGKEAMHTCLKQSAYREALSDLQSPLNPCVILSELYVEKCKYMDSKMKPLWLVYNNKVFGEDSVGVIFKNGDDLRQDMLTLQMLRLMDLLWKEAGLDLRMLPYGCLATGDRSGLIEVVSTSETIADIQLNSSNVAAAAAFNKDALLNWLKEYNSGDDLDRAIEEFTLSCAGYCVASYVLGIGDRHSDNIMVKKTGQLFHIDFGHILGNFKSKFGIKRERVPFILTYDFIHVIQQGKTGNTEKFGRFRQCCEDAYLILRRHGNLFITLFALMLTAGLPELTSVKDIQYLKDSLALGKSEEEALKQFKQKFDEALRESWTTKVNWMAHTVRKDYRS
T1 sequence (P27986 whole entry partner): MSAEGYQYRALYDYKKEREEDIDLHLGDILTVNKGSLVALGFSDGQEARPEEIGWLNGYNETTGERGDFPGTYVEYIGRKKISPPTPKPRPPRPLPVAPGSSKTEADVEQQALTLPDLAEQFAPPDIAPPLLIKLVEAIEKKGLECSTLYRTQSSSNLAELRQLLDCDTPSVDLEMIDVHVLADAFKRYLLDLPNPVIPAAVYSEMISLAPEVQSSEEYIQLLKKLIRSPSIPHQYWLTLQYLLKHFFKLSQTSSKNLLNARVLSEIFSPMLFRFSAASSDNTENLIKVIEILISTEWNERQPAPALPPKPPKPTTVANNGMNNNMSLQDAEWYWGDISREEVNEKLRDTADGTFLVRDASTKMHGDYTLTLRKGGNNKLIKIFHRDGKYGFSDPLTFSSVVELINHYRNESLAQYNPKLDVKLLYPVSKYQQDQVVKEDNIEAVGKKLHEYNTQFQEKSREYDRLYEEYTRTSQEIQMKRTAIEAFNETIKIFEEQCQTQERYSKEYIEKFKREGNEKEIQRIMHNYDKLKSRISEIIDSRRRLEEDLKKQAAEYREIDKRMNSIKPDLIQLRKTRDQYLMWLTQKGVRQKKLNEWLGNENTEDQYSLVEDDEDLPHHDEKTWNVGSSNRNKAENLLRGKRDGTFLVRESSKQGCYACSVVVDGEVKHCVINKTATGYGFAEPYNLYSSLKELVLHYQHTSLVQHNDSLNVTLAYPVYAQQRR

CN(C(=O)CN1CCOCC1)c1ccc2sc3c(-c4cccc5c(=O)cc(N6CC7CCC(C6)O7)oc45)cccc3c2c1 [NU5455]
inhibition at 1 µM: -3.8%
